Source: patent US6387905B2, “Compounds useful for inhibition of farnesyl protein transferase” (Schering Corporation, priority 1996, dated 2002)
Like-named read-outs stand apart in the source and are kept apart here.

How the values were obtained:
[1] = target: farnesyl protein transferase (FPT), H-ras (Homo sapiens, UniProt P49354+P49356); experiment: FPT IC50 (H-ras), inhibition of farnesyl protein transferase, in vitro enzyme assay; type: biochemical
Procedure: (§1) FPT IC50 (inhibition of farnesyl protein transferase, in vitro enzyme assay) and COS Cell IC50 (Cell-Based Assay) were determined following the assay procedures described in WO 95/10516, published Apr. 20, 1995. GGPT IC50 (inhibition of geranylgeranyl protein transferase, in vitro enzyme assay), Cell Mat Assay, and anti-tumor activity (in vivo anti-tumor studies) could be determined by the assay procedures described in WO 95/10516. The disclosure of WO 95/10516 is incorporated herein by reference thereto.

[2] = system: COS Cell; experiment: COS Cell IC50 (Cell-Based Assay)
Procedure: as §1

[3] = system: Human tumor cells; experiment: Soft Agar Assay (anchorage-independent growth); type: cell-based; details: Homo sapiens, Table 5; read-out: Soft Agar IC50
Procedure: Anchorage-independent growth is a characteristic of tumorgenic cell lines. Human tumor cells are suspended in growth medium containing 0.3% agarose and an indicated concentration of a farnesyl transferase inhibitor. The solution is overlayed onto growth medium solidified with 0.6% agarose containing the same concentration of farnesyl transferase inhibitor as the top layer. After the top layer is solidified, plates are incubated for 10-16 days at 37° C. under 5% CO2 to allow colony outgrowth. After incubation, the colonies are stained by overlaying the agar with a solution of MTT (3-[4,5-dimethyl-thiazol-2-yl]-2,5-diphenyltetrazolium bromide, Thiazolyl blue) (1 mg/mL in PBS). Colonies can be counted and the IC50's can be determined.

[4] = Table 3, H-ras, read-out: FPT IC50 (nM) (H-ras)
[5] = COS, Table 5, read-out: Cos Cell IC50
[6] = H-ras, read-out: FPT IC50 (H-ras)

Row | SMILES | IC50 ([1]; Table 4, read-out: FPT IC50) [nM] | IC50 [2, 5] [nM] | IC50 [3] [nM] | other results
1 | O=C(CC1CCN(C(=O)CN2CCS(=O)(=O)CC2)CC1)N1CCC(C2c3ncc(Br)cc3CCc3cc(Cl)cc(Br)c32)CC1 (single isomer, unassigned; (+)) [Example 23] | – | – | – | IC50 [1, 4]: 2.7 nM; IC50 ([2]; COS, Table 3, read-out: COS Cell IC50): 14 nM
2 | O=C(CC1CCN(C(=O)CN2CCS(=O)(=O)CC2)CC1)N1CCC([C@H]2c3ncc(Br)cc3CCc3cc(Cl)cc(Br)c32)CC1 [Cmpd 6.0-B] | 2.7 | 30 | 210 | –
3 | O=C(CCN1CCCCC1)N1CCC(CC(=O)N2CCC([C@H]3c4ncc(Br)cc4CCc4cc(Cl)cc(Br)c43)CC2)CC1 [Cmpd 7.0-B] | < 2.6 | 43 | – | –
4 | CC(C)=NOCC(=O)N1CCC(CC(=O)N2CCC([C@H]3c4ncc(Br)cc4CCc4cc(Cl)cc(Br)c43)CC2)CC1 [Cmpd 9.0-B] | 5.8 | 25 | > 500 | –
5 | Cc1nccn1CC(=O)N1CCC(CC(=O)N2CCC([C@H]3c4ncc(Br)cc4CCc4cc(Cl)cc(Br)c43)CC2)CC1 [Cmpd 10.0-B] | 2.5 | 20 | > 300 | –
6 | Cc1cn(CC(=O)N2CCC(CC(=O)N3CCC([C@H]4c5ncc(Br)cc5CCc5cc(Cl)cc(Br)c54)CC3)CC2)cn1 [Cmpd 11.0-B] | 1.6 | 29 | > 500 | –
7 | O=C(CC1CCN(C(=O)Cn2cnc3ccccc32)CC1)N1CCC([C@H]2c3ncc(Br)cc3CCc3cc(Cl)cc(Br)c32)CC1 [Cmpd 12.0-B] | 3 | 20 | > 500 | –
8 | O=C(CC1CCN(C(=O)Cn2cnc3cccnc32)CC1)N1CCC([C@H]2c3ncc(Br)cc3CCc3cc(Cl)cc(Br)c32)CC1 [Cmpd 13.0-B] | 4.1 | 25 | > 500 | –
9 | O=C(O)C(=O)N1CCC(CC(=O)N2CCC([C@H]3c4ncc(Br)cc4CCc4cc(Cl)cc(Br)c43)CC2)CC1 [Cmpd 17.0-B] | 1.2 | > 1000 | > 500 | –
10 | O=C(CC1CCN(C(=O)Cn2cnc(-c3ccccc3)c2)CC1)N1CCC([C@H]2c3ncc(Br)cc3CCc3cc(Cl)cc(Br)c32)CC1 [Cmpd 20.0-B] | 5.6 | – | – | –
11 | CCOC(=O)c1c(C)ncn1CC(=O)N1CCC(CC(=O)N2CCC([C@H]3c4ncc(Br)cc4CCc4cc(Cl)cc(Br)c43)CC2)CC1 [Cmpd 21.0-B] | 5.7 | – | > 500 | –
12 | O=C(CO/N=C/c1cc[n+]([O-])cc1)N1CCC(CC(=O)N2CCC([C@H]3c4ncc(Br)cc4CCc4cc(Cl)cc(Br)c43)CC2)CC1 [Cmpd 22.0-B] | 1.8 | 35 | 19.5 | –
13 | CC(C)=NOCCC(=O)N1CCC(CC(=O)N2CCC([C@H]3c4ncc(Br)cc4CCc4cc(Cl)cc(Br)c43)CC2)CC1 [Cmpd 23.0-B] | 2.8 | < 10 | > 500 | –
14 | O=C(CC1CCN(C(=O)Cn2cnc([N+](=O)[O-])c2)CC1)N1CCC([C@H]2c3ncc(Br)cc3CCc3cc(Cl)cc(Br)c32)CC1 [Cmpd 26.0-B] | 3.2 | 30 | > 500 | –
15 | O=C(Cc1c[nH]cn1)N1CCC(CC(=O)N2CCC([C@H]3c4ncc(Br)cc4CCc4cc(Cl)cc(Br)c43)CC2)CC1 [Cmpd 30.0-B] | 2.9 | 9 | 500 | –
16 | NNC(=O)C(=O)N1CCC(CC(=O)N2CCC([C@H]3c4ncc(Br)cc4CCc4cc(Cl)cc(Br)c43)CC2)CC1 [Cmpd 32.0-B] | 3.5 | 28 | > 500 | –
17 | CN(C)C(=O)C(=O)N1CCC(CC(=O)N2CCC([C@H]3c4ncc(Br)cc4CCc4cc(Cl)cc(Br)c43)CC2)CC1 [Cmpd 33.0-B] | 2.1 | 10 | > 120 | –
18 | O=C(CC1CCN(C(=O)Cn2cccc2)CC1)N1CCC([C@H]2c3ncc(Br)cc3CCc3cc(Cl)cc(Br)c32)CC1 [Cmpd 34.0-B] | 4.2 | 9 | 460 | –
19 | COC(=O)c1cccn1CC(=O)N1CCC(CC(=O)N2CCC([C@H]3c4ncc(Br)cc4CCc4cc(Cl)cc(Br)c43)CC2)CC1 [Cmpd 35.0-B] | 6.4 | 30 | 300 | IC50 ([2]; Table 5, read-out: Cos Cell IC50): 50 nM

Row | SMILES | IC50 ([1]; Table 4, read-out: FPT IC50) [nM] | IC50 [2, 5] [nM] | IC50 [3] [nM] | other results
20 | O=C(CO)N1CCC(CC(=O)N2CCC([C@H]3c4ncc(Br)cc4CCc4cc(Cl)cc(Br)c43)CC2)CC1 [Cmpd 37.0-B] | 2.6 | – | 75 | –
21 | CN(C)S(=O)(=O)NCC(=O)N1CCC(CC(=O)N2CCC([C@H]3c4ncc(Br)cc4CCc4cc(Cl)cc(Br)c43)CC2)CC1 [Cmpd 38.0-B] | 3.2 | 10 | 210 | –
22 | NS(=O)(=O)NCC(=O)N1CCC(CC(=O)N2CCC([C@H]3c4ncc(Br)cc4CCc4cc(Cl)cc(Br)c43)CC2)CC1 [Cmpd 39.0-B] | 4.1 | 16 | 220 | –
23 | N#CCC(=O)N1CCC(CC(=O)N2CCC([C@H]3c4ncc(Br)cc4CCc4cc(Cl)cc(Br)c43)CC2)CC1 [Cmpd 44.0-B] | 2.6 | < 10 | 120 | –
24 | CONC(=O)C(=O)N1CCC(CC(=O)N2CCC(C3c4ncc(Br)cc4CCc4cc(Cl)cc(Br)c43)CC2)CC1 (stereo not shown) [Cmpd 49.0-B] | 2.1 | 38 | > 500 | –
25 | NC(=O)CC(=O)N1CCC(CC(=O)N2CCC([C@H]3c4ncc(Br)cc4CCc4cc(Cl)cc(Br)c43)CC2)CC1 [Cmpd 50.0-B] | 3.3 | < 10 | 95 | –
26 | COC(NC(=O)CC(=O)N1CCC(CC(=O)N2CCC([C@H]3c4ncc(Br)cc4CCc4cc(Cl)cc(Br)c43)CC2)CC1)C(C)C (stereo partly shown) [Cmpd 51.0-B] | 8.1 | 280 | – | –
27 | CCOC(=O)c1c(C)ncn1CC(=O)N1CCC(CC(=O)N2CCC([C@H]3c4ncc(Br)cc4CCc4cc(Cl)cc(Br)c43)CC2)CC1 [Cmpd 53.0-B] | 3.6 | 50 | – | –
28 | O=C(NO)C(=O)N1CCC(CC(=O)N2CCC([C@H]3c4ncc(Br)cc4CCc4cc(Cl)cc(Br)c43)CC2)CC1 [Cmpd 58.0-B] | 16 | – | – | –
29 | CNC(=O)C(=O)N1CCC(CC(=O)N2CCC([C@H]3c4ncc(Br)cc4CCc4cc(Cl)cc(Br)c43)CC2)CC1 [Cmpd 64.0-B] | – | 10 | 130 | –
30 | NC(=O)CCCCC(=O)N1CCC(CC(=O)N2CCC([C@H]3c4ncc(Br)cc4CCc4cc(Cl)cc(Br)c43)CC2)CC1 [Cmpd 67.0-B] | 3.5 | – | – | –
31 | CCOC(CC(=O)N1CCC(CC(=O)N2CCC([C@H]3c4ncc(Br)cc4CCc4cc(Cl)cc(Br)c43)CC2)CC1)OCC [Cmpd 76.0-B] | 6.7 | – | – | –
32 | NCCCC(=O)N1CCC(CC(=O)N2CCC([C@H]3c4ncc(Br)cc4CCc4cc(Cl)cc(Br)c43)CC2)CC1 [Cmpd 90.0-B] | 3.8 | – | – | –
33 | CC(C)(C)OC(=O)N[C@@H](Cc1ccccc1)C(=O)N1CCC(CC(=O)N2CCC([C@H]3c4ncc(Br)cc4CCc4cc(Cl)cc(Br)c43)CC2)CC1 [Example 7] | – | – | – | IC50 [1, 4]: 31.7 nM
34 | O=C(O)CCCC(=O)N1CCC(CC(=O)N2CCC([C@H]3c4ncc(Br)cc4CCc4cc(Cl)cc(Br)c43)CC2)CC1 [Example 19.0-B] | 1.1 | – | – | IC50 ([2]; COS, read-out: Cos Cell IC50, Table 5): 17.5 nM; IC50 ([2]; read-out: Cos Cell IC50, Table 5): < 10 nM
35 | CC(C)=NOCCC(=O)N1CCC(CC(=O)N2CCC([C@H]3c4ncc(Br)cc4CCc4cc(Cl)cc(Br)c43)CC2)CC1 [Example 23.0-B] | – | – | – | IC50 [1, 6]: 2.8 nM
36 | O=C(CC1CCN(C(=O)CN2C(=O)CSC2=O)CC1)N1CCC([C@H]2c3ncc(Br)cc3CCc3cc(Cl)cc(Br)c32)CC1 [Example 79.0-B] | – | – | – | IC50 [1, 6]: 4.4 nM
37 | CC(C)(C)OC(=O)NCCC(=O)N1CCC(CC(=O)N2CCC([C@H]3c4ncc(Br)cc4CCc4cc(Cl)cc(Br)c43)CC2)CC1 [Example 86.0-B] | 18 | – | – | –
38 | NC(=O)CCCCC(=O)N1CCC(CC(=O)N2CCC([C@H]3c4ncc(Br)cc4CCc4cc(Cl)cc(Br)c43)CC2)CC1 [Example 108.0-B] | – | – | – | IC50 [1, 6]: 3.5 nM
